From US5734081A, “Arylthio compounds” (Warner-Lambert Company, priority 1995, dated 1998)

Experiments:
[1] = target: T1, HIV-1 Nucleocapsid Protein (NCp7) (Human immunodeficiency virus type 1 group M subtype B, UniProt P12493); experiment: Zinc extrusion assay (TSQ fluorescence) from the zinc fingers of HIV-1 nucleocapsid protein (NCp7); type: biochemical; settings: 10 μM compound, 2.8 μM NCp7, pH 7.4, 26° C., 90 minutes
T1 construct: The NCp7 protein containing 2 Zn-fingers and 2 Zn ions is incubated with drug
Source text: The compounds of the present invention cause the extrusion of zinc from the nucleocapsid protein (NCp7) of HIV-1. The NC protein is highly conserved among all retroviruses (South T., Blake P., et al., Biochemistry, 1990;29:7786) and is essential for viral infectivity (Aldovini A. and Young R., J. Virology, 1990;64:1920 and Gorelick R., Nigida S., et al., J. Virology, 1990;64:3207). The zinc is normally held in NC proteins by 1 or 2 zinc fingers. In the case of HIV-1, 2 zinc fingers are present (Summers M., South T., et al., Biochemistry, 1990;29:329) and are involved specifically with the PSI site on viral RNA which controls the packaging of viral RNA. Interference of this packaging causes the formation of non-infectious virions (Dannull J., Surovoy A., et al., EMBO, 1994;13:1525). It has previously been shown that compounds that cause zinc extrusion have potent anti-HIV activity in multiple cell lines and against all retroviruses (Rice W., Schaeffer C., et al., Nature, 1993;361:473).
A fluorescence-based assay has been developed to monitor the ejection of zinc from purified HIV-1 NCp7. The fluorophore, N-(6-methoxy-8-quinolyl)-p-toluenesulfonamide (TSQ), has an increased fluorescent signal upon bonding zinc ion in solution. The NCp7 protein containing 2 Zn-fingers and 2 Zn ions is incubated with drug causing the extrusion of Zn ions. The released Zn is then sequestered by the TSQ and the increased fluorescence monitored relative to control. […] Fluorescence (excitation 355 nm emission 400 nm) was monitored versus time. Controls were the NCp7 under assay conditions without drug, and apo NCp7 (no Zn) with drug. The % Zn extrusion was calculated based on the actual fluorescence measured divided by the fluorescence of all theoretical Zn extruded (5.6 μM)×100.
Table 1 below presents data for several invention compounds evaluated in the zinc extrusion assay described above.

[2] = tested on: HIV-1; experiment: CEM cell assay, anti-HIV-1 activity; type: cell-based; settings: Human immunodeficiency virus 1, CCRF-CEM, HIV-1, 6 or 7 days, read-out: EC50 (Effective Concentration which protects cells from viral cytopathic effects)
Source text: The test systems utilized to establish the antiviral activity of the arylthio compounds of this invention are well recognized in the art and are routinely employed for such purpose. For example, the assay utilized to evaluate the compounds activity against the HIV virus is that employed by the U.S. National Cancer Institute as described by Weislow O. S., et al., J. Natl. Cancer Inst., 1989;81:577-586, incorporated herein by reference.
The procedure is designed to detect agents acting at any stage of the virus reproductive cycle. The assay basically involves the killing of T4 lymphocytes by HIV. Small amounts of HIV are added to cells, and at least two complete cycles of virus reproduction are necessary to obtain the required cell killing. Agents which interact with virions, cells, or virus gene-products to interfere with viral activities will protect cells from cytolysis. The system is automated in several features to accommodate large numbers of candidate agents, and is generally designed to detect anti-HIV activity. However, compounds which degenerate or are rapidly metabolized in the culture conditions may not show activity in this screen.
(§1) Yet another test system employed to determine antiviral activity is called the CEM cell assay.
(§2) T4 lymphocytes (CEM cell line) are exposed to HIV at a virus to cell ratio approximately 0.05, and plated along with noninfected control cells in 96-well microliter plates.
(§3) The candidate agent is dissolved in dimethyl sulfoxide (unless otherwise noted), then diluted 1:200 in cell culture medium. Further dilutions (half-log10) are prepared before adding to an equal volume of medium containing either infected or noninfected cells. Cultures are incubated at 37° in a 5% carbon dioxide atmosphere for 6 or 7 days. The tetrazolium salt, XTT, is added to all wells, and cultures are incubated to allow formazan color development by viable cells (J. National Cancer Institute, 1989;81:577-586). Individual wells are analyzed spectrophotometrically to quantitate formazan production, and in addition are viewed microscopically for detection of viable cells confirmation of protective activity.
(§4) Drug-tested virus-infected cells are compared with drug-treated noninfected cells and with other appropriate controls (untreated infected and untreated noninfected cells, drug-contain wells without cells, etc.) on the same plate. Data are reviewed in comparison with other tests done at the same time and a determination about activity is made.

[3] = CEM cell growth inhibition (XTT, noninfected cells); type: cell-based; settings: human, CEM Cell Assay, drug alone, read-out: IC50 (Inhibitory Concentration where drug alone inhibits cell growth)
Protocol: as §1, §2, §3, §4

[4] = tested on: HIV-1; experiment: HIV H9 cell assay, anti-HIV-1 activity; type: cell-based; settings: Human immunodeficiency virus 1, H9, 168 h, read-out: EC50 (Effective Concentration which protects cells from viral cytopathic effects)
Source text: Another test system utilized to evaluate the invention compounds is called HIV H9 assay. The HIV H9 cell assay measures the inhibitor concentration required to suppress HIV-1 virus replication. In this system, viral growth occurs through multiple rounds of the life-cycle. Any suppression of the replication kinetics results in a geometric decrease in virus production. As a result, this assay is a sensitive means of measuring the ability of a compound to inhibit HIV-1 viral replication.
(§5) The H9 T-cell line is batch infected with HIV virus at an M0I of 0.01. After 2 hours absorption, the cells are washed, resuspended in RPMI-1640/10% fetal calf serum, and seeded at […] of a 96-well plate. A duplicate plate of uninfected H9 cells is prepared for the cytotoxicity assay. Drugs are serially diluted 1/3.16 in DMSO, transferred to media at an 8× concentration, and then added to the cultures in triplicate. The final DMSO concentration of 0.002 (0.2%).
(§6) Viral production is measured by RT assay and cytotoxicity is measured by XTT assay at 7 days post-infection. The RT assay is performed as a modification of Borroto-Esoda and Boone, J. Virol., 1991;65:1952-1959 and quantitated using a Molecular Dynamics Phosphoimager with Imagequant software. The XTT assay is performed as a modification of Roehm, et al., J. Immuno. Methods., 1991;142:257-265 and quantitated using a molecular Devices Thermomax plate reader with Softmax software.
(§7) Data is electronically transferred to a Microsoft Excell spreadsheet for analysis. The RT assay values equivalent to 50% and 90% inhibition of virus production are calculated from the untreated controls. The concentrations of inhibitor required to produce these values (IC50 and IC90) are interpolated from data points flanking these RT activities. The XTT assay values equivalent to 50% cytotoxicity are calculated from the untreated controls. The concentrations of inhibitor required to produce this value are interpolated from data points flanking these XTT values.

[5] = H9 cell cytotoxicity (XTT assay, uninfected cells); type: cell-based; settings: human, drug alone, read-out: IC50 (Inhibitory Concentration where drug alone inhibits cell growth)
Protocol: as §5, §6, §7

CC(=O)N[C@@H](CSSc1ccccc1C(=O)Nc1ccc(S(N)(=O)=O)cc1)C(=O)O [Example 134, 2-Acetylamino-3-[2-(4-sulfamoylphenylcarbamoyl)phenyldisulfanyl]-propionic acid]
% Zinc Extrusion Relative to Control [1]: 77%
EC50 [2]: 6.9 µM
CC50 [3]: > 100 µM

O=C(N[C@@H](C(=O)O)c1ccccc1)c1ccccc1SSc1ccccc1C(=O)N[C@@H](C(=O)O)c1ccccc1 [Example 68, [R-(R*,R*)] (2-{2-[(Carboxy-phenyl-methyl)-carbamoyl]phenyldisulfanyl}-benzoylamino)-phenyl-acetic acid]
% Zinc Extrusion Relative to Control [1]: 89%
EC50 [2]: 25 µM
CC50 [3]: > 100 µM

CC(=O)Nc1ccc(S)c(C(N)=O)c1 [Example 10, 5-Acetylamino-2-thiobenzamide]
EC50 [4]: 5.4 µM
CC50 at 168 h [5]: > 100 µM

CC(SSc1ccccc1C(=O)Nc1ccc(S(N)(=O)=O)cc1)C(=O)NCC(=O)O (centres unmarked) [Example 135, {2-[2-(4-Sulfamoylphenylcarbamoyl)phenyldisulfanyl]propionylamino}-acetic acid]
% Zinc Extrusion Relative to Control [1]: 40%
EC50 [2]: 5.8 µM
CC50 [3]: > 100 µM

CC(SSc1ccccc1C(=O)Nc1ccc(S(N)(=O)=O)cc1)C(=O)O (centres unmarked) [Example 132, 2-[2-(4-Sulfamoylphenylcarbamoyl)phenyldisulfanyl]propionic acid]
% Zinc Extrusion Relative to Control [1]: 70%
EC50 [2]: 2.8 µM
CC50 [3]: > 100 µM

CCC(C)C(NC(=O)c1ccccc1SSc1ccccc1C(=O)NC(C(=O)O)C(C)CC)C(=O)O (racemic) [Example 5, 2-[[2-[(1-Carboxy-2-methylbutylcarbamoyl)phenyldisulfanyl]-benzoyl]-amino]-3-methylpentanoic acid]
% Zinc Extrusion Relative to Control [1]: 87%
EC50 [4]: 1.4 µM
CC50 at 168 h [5]: 62 µM
EC50 [2]: 10.5 µM
CC50 [3]: 105 µM

NS(=O)(=O)c1ccc(NC(=O)c2ccc(SSc3ccc(C(=O)Nc4ccc(S(N)(=O)=O)cc4)cc3)cc2)cc1 [Reference Compound, 4,4dithiobis-4sulfamoyl benzanilide, reference compound]
% Zinc Extrusion Relative to Control [1]: 0%
EC50 [4]: > 100 µM
CC50 at 168 h [5]: > 100 µM
EC50 [2]: > 100 µM
CC50 [3]: > 100 µM

NC(=O)c1cc(NC(=O)c2ccccc2)ccc1SSc1ccc(NC(=O)c2ccccc2)cc1C(N)=O [Example 75, 2,2'-Dithiobis[5-(benzoylamino)-benzamide]]
% Zinc Extrusion Relative to Control [1]: 52%
EC50 [2]: 5.3 µM
CC50 [3]: 59 µM

O=C(O)CCNC(=O)c1ccccc1SSc1ccccc1C(=O)NCCC(=O)O [Example 76, 3,3'-[Dithiobis(2,1-phenylenecarbonylimino)]bis-propionic acid]
% Zinc Extrusion Relative to Control [1]: 82%
EC50 [2]: 6.2 µM
CC50 [3]: > 100 µM

CN(C(=O)c1ccccc1SSc1ccccc1C(=O)N(C)c1ccc(S(N)(=O)=O)cc1)c1ccc(S(N)(=O)=O)cc1 [Example 142]
% Zinc Extrusion Relative to Control [1]: 84%
EC50 [2]: 17 µM
CC50 [3]: > 100 µM

COC(=O)[C@H](CSSc1ccccc1C(=O)Nc1ccc(S(N)(=O)=O)cc1)NC(C)=O [Example 133, 2-Acetylamino-3-[2-(4-sulfamoylphenylcarbamoyl)phenyldisulfanyl]-propionicacid, methyl ester]
% Zinc Extrusion Relative to Control [1]: 53%
EC50 [2]: 6.7 µM
CC50 [3]: 69 µM

NC(=O)c1cc(NC(=O)C(F)(F)F)ccc1SSc1ccc(NC(=O)C(F)(F)F)cc1C(N)=O [Example 74]
% Zinc Extrusion Relative to Control [1]: 59%
EC50 [2]: 6.3 µM
CC50 [3]: 67 µM

NS(=O)(=O)c1ccc(CNC(=O)c2ccccc2SSc2ccccc2C(=O)NCc2ccc(S(N)(=O)=O)cc2)cc1 [Example 12, 2,2'-Dithiobis[N-[[4-(aminosulfonyl)phenyl]methy]benzamide]]
% Zinc Extrusion Relative to Control [1]: 27%
EC50 [2]: 0.59 µM
CC50 [3]: 21 µM

COc1ccc(C(=O)Nc2ccc(S(N)(=O)=O)cc2)c(SSc2cc(OC)ccc2C(=O)Nc2ccc(S(N)(=O)=O)cc2)c1 [Example 19, 2,2'-Dithiobis[N-[4-(aminosulfonyl)phenyl]-4-methoxybenzamide]]
EC50 [2]: 2.4 µM
CC50 [3]: > 100 µM

NS(=O)(=O)c1cc(Cl)ccc1SSc1ccc(Cl)cc1S(N)(=O)=O [Example 148, 2,2'-Dithiobis[5-chloro]-benzenesulfonamide]
% Zinc Extrusion Relative to Control [1]: 92%
EC50 [2]: 12 µM
CC50 [3]: 30 µM

COC(=O)[C@H](N)C(C)(C)SSc1ccccc1C(=O)Nc1ccc(S(N)(=O)=O)cc1 [Example 139, 2-Amino-3-methyl-3-[2-(4-sulfamoylphenylcarbamoyl)phenyldisulfanyl]-butyric acid, methyl ester]
% Zinc Extrusion Relative to Control [1]: 70%
EC50 [2]: 6.9 µM
CC50 [3]: > 100 µM

O=C(Nc1ccc(S(=O)(=O)Nc2ncccn2)cc1)c1ccccc1SSc1ccccc1C(=O)Nc1ccc(S(=O)(=O)Nc2ncccn2)cc1 [Example 15, 2,2'-Dithiobis[N-[4-[(2-pyrimidinylamino)sulfonyl]phenyl]-benzamide]]
% Zinc Extrusion Relative to Control [1]: 72%
EC50 [4]: 2 µM
CC50 at 168 h [5]: 22 µM
